Laboratory results published in ChEMBL document CHEMBL1782045, “Discovery, synthesis, and investigation of the antitumor activity of novel piperazinylpyrimidine derivatives” (Eur J Med Chem, 2011).

Columns and labels:
SK-MEL-2 [1] = test: Cytotoxicity against human SK-MEL-2 cells after 48 hrs by sulforhodamine B assay; assay type: cell-based; conditions: sk-mel-2, 48 h
SK-MEL-5 = test: Cytotoxicity against human SK-MEL-5 cells after 48 hrs by sulforhodamine B assay; assay type: cell-based; conditions: sk-mel-5, 48 h
UACC-257 = test: Cytotoxicity against human UACC257 cells after 48 hrs by sulforhodamine B assay; assay type: cell-based; conditions: uacc-257, 48 h
UACC-62 = test: Cytotoxicity against human UACC62 cells after 48 hrs by sulforhodamine B assay; assay type: cell-based; conditions: uacc-62, 48 h
OVCAR-5 [2] = test: Cytotoxicity against human OVCAR5 cells after 48 hrs by sulforhodamine B assay; assay type: cell-based; conditions: ovcar-5, 48 h
NCI/ADR-RES = test: Cytotoxicity against human NCI/ADR-RES cells after 48 hrs by sulforhodamine B assay; assay type: cell-based
SK-OV-3 [3] = test: Cytotoxicity against human SKOV3 cells after 48 hrs by sulforhodamine B assay; assay type: cell-based; conditions: sk-ov-3, 48 h
CAKI-1 = test: Cytotoxicity against human Caki1 cells after 48 hrs by sulforhodamine B assay; assay type: cell-based; conditions: caki-1, 48 h
TK-10 [4] = test: Cytotoxicity against human TK10 cells after 48 hrs by sulforhodamine B assay; assay type: cell-based; conditions: tk-10, 48 h
NCI-H460 = test: Growth inhibition of human NCI-H460 cells after 48 hrs by sulforhodamine B assay; assay type: functional; conditions: NCI-H460, 48 h
DU-145 = test: Cytotoxicity against human DU145 cells after 48 hrs by sulforhodamine B assay; assay type: cell-based; conditions: du-145, 48 h
MCF7 = test: Cytotoxicity against human MCF7 cells after 48 hrs by sulforhodamine B assay; assay type: cell-based; conditions: mcf7, 48 h
MDA-MB-231 = test: Cytotoxicity against human MDA-MB-231 cells after 48 hrs by sulforhodamine B assay; assay type: cell-based; conditions: mda-mb-231, 48 h
Hs-578T = test: Cytotoxicity against human Hs578T cells after 48 hrs by sulforhodamine B assay; assay type: cell-based
BT-549 = test: Cytotoxicity against human BT549 cells after 48 hrs by sulforhodamine B assay; assay type: cell-based; conditions: bt-549, 48 h
[5] = biological target: Serine/threonine-protein kinase B-raf (Homo sapiens) (UniProt P15056); test: Binding affinity to human BRAF at 10 uM incubated for 1 hr by kinase binding assay relative to untreated control
Serine/threonine-protein kinase B-raf (Homo sapiens), sequence (P15056 whole entry): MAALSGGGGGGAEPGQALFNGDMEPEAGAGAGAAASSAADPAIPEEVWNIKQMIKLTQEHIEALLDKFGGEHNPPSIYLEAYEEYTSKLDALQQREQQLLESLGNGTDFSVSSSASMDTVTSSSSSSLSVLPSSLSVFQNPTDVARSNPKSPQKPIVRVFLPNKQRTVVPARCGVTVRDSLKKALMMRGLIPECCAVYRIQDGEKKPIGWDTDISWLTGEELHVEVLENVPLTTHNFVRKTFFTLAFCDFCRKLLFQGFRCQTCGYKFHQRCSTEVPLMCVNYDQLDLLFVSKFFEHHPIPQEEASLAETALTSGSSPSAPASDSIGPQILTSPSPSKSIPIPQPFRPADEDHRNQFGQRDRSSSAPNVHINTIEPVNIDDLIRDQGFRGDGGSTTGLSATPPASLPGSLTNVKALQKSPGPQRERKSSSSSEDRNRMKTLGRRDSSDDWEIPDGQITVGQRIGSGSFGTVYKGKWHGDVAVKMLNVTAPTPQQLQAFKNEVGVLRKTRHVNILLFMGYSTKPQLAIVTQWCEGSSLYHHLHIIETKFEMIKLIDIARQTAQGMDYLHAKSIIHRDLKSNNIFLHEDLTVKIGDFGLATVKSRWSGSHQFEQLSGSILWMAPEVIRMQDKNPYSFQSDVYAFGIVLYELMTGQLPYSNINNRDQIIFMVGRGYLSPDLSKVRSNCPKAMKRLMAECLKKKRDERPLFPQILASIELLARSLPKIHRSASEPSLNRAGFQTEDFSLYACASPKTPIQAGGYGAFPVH

[6] = system: Serine/threonine-protein kinase B-raf (Homo sapiens), P15056 [V600E]; test: Binding affinity to human BRAF V600E mutant at 10 uM incubated for 1 hr by kinase binding assay relative to untreated control
Serine/threonine-protein kinase B-raf (Homo sapiens), P15056 [V600E], sequence (P15056 whole entry V600E): as the sequence (P15056 whole entry) above, with V600E counted along it

[7] = biological target: Cyclin-dependent kinase 8 (Homo sapiens) (UniProt P49336); test: Binding affinity to human CDK8 at 10 uM incubated for 1 hr by kinase binding assay relative to untreated control
[8] = biological target: Macrophage colony-stimulating factor 1 receptor (Homo sapiens) (UniProt P07333); test: Binding affinity to human CSF1R at 10 uM incubated for 1 hr by kinase binding assay relative to untreated control
Macrophage colony-stimulating factor 1 receptor (Homo sapiens), sequence (P07333 whole entry, canonical isoform): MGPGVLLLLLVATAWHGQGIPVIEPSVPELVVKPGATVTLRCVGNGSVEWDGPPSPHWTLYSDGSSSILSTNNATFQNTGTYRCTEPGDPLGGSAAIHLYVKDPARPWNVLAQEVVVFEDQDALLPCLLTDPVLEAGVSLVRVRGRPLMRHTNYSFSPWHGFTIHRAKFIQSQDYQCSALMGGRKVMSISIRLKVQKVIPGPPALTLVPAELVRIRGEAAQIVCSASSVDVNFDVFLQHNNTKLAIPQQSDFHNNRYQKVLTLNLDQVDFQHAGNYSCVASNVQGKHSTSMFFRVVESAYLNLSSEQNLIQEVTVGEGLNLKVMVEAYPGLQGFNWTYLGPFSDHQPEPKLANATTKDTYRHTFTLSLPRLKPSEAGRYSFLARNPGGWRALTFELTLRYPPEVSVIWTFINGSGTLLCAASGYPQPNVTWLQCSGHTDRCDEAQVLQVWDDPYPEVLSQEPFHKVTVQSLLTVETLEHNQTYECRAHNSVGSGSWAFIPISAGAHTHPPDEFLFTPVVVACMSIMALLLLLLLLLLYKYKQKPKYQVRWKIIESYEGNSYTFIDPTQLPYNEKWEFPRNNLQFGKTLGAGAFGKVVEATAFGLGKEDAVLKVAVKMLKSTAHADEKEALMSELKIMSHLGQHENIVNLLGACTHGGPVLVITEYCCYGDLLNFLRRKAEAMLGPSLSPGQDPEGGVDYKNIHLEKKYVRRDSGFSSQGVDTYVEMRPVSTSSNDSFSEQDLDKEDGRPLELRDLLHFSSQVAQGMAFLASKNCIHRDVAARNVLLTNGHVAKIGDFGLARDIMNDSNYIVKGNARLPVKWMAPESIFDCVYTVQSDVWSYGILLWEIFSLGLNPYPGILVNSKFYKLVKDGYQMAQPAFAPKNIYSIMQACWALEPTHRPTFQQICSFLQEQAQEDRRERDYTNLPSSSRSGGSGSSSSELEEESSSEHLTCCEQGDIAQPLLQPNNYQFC

[9] = biological target: Casein kinase I isoform delta (Homo sapiens) (UniProt P48730); test: Binding affinity to human CSNK1D at 10 uM incubated for 1 hr by kinase binding assay relative to untreated control
Casein kinase I isoform delta (Homo sapiens), sequence (P48730 whole entry, looked up, canonical isoform): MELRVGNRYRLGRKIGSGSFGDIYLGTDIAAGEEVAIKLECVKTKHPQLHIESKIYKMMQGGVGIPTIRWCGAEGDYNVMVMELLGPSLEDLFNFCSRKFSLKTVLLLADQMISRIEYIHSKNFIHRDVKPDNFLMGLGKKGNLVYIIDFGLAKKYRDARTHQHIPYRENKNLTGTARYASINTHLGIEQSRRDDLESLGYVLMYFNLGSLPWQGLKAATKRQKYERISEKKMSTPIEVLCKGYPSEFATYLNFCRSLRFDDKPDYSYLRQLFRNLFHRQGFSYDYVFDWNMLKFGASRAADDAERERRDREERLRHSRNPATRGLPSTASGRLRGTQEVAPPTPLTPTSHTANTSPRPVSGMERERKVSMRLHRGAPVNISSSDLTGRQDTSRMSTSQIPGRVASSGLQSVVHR

[10] = biological target: Casein kinase I isoform gamma-3 (Homo sapiens) (UniProt Q9Y6M4); test: Binding affinity to human CSNK1G3 at 10 uM incubated for 1 hr by kinase binding assay relative to untreated control
Casein kinase I isoform gamma-3 (Homo sapiens), sequence (Q9Y6M4 whole entry, looked up, the tested form may be a part, canonical isoform): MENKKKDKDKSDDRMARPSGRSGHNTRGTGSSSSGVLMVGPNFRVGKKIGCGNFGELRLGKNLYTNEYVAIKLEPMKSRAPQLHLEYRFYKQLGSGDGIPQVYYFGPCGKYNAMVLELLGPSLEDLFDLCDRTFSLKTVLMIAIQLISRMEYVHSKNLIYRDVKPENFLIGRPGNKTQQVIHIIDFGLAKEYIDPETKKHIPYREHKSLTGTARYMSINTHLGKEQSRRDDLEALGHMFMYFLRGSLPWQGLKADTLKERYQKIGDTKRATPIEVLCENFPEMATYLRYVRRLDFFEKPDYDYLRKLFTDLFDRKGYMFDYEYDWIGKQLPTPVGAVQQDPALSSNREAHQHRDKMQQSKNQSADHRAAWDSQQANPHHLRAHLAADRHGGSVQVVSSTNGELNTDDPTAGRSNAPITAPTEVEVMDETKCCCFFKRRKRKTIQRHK

[11] = biological target: Epithelial discoidin domain-containing receptor 1 (Homo sapiens) (UniProt Q08345); test: Binding affinity to human DDR1 at 10 uM incubated for 1 hr by kinase binding assay relative to untreated control
[12] = biological target: Receptor-type tyrosine-protein kinase FLT3 (Homo sapiens) (UniProt P36888); test: Binding affinity to human FLT3 at 10 uM incubated for 1 hr by kinase binding assay relative to untreated control
HCT-15 = test: Growth inhibition of human HCT15 cells after 48 hrs by sulforhodamine B assay; assay type: functional; conditions: HCT-15, 48 h
SW-620 = test: Growth inhibition of human SW620 cells after 48 hrs by sulforhodamine B assay; assay type: functional; conditions: SW-620, 48 h
SNB-19 [13] = test: Growth inhibition of human SNB19 cells after 48 hrs by sulforhodamine B assay; assay type: functional; conditions: SNB-19, 48 h
U-251 = test: Growth inhibition of human U251 cells after 48 hrs by sulforhodamine B assay; assay type: functional; conditions: U-251, 48 h
SK-MEL-2 [14] = test: Growth inhibition of human SK-MEL-2 cells after 48 hrs by sulforhodamine B assay; assay type: functional; conditions: SK-MEL-2, 48 h
OVCAR-5 [15] = test: Growth inhibition of human OVCAR5 cells after 48 hrs by sulforhodamine B assay; assay type: functional; conditions: OVCAR-5, 48 h
SK-OV-3 [16] = test: Growth inhibition of human SKOV3 cells after 48 hrs by sulforhodamine B assay; assay type: functional; conditions: SK-OV-3, 48 h
786-0 = test: Growth inhibition of human 786-0 cells after 48 hrs by sulforhodamine B assay; assay type: functional; conditions: 786-0, 48 h
A498 = test: Growth inhibition of human A498 cells after 48 hrs by sulforhodamine B assay; assay type: functional; conditions: A498, 48 h
TK-10 [17] = test: Growth inhibition of human TK10 cells after 48 hrs by sulforhodamine B assay; assay type: functional; conditions: TK-10, 48 h
MOLT-4 = test: Cytotoxicity against human MOLT4 cells after 48 hrs by sulforhodamine B assay; assay type: cell-based; conditions: molt-4, 48 h
A549 = test: Cytotoxicity against human A549 cells after 48 hrs by sulforhodamine B assay; assay type: cell-based; conditions: a549, 48 h
HOP-62 = test: Cytotoxicity against human HOP62 cells after 48 hrs by sulforhodamine B assay; assay type: cell-based; conditions: hop-62, 48 h
[18] = biological target: Tyrosine-protein kinase ABL1 (Homo sapiens) (UniProt P00519); test: Inhibition of human ABL using gamma-33P-ATP as substrate assessed as enzyme functional activity at 1 uM by scintillation counting relative to untreated control; set-up: scale not given: the % may be the effect or the level left
Tyrosine-protein kinase ABL1 (Homo sapiens), sequence (P00519 whole entry): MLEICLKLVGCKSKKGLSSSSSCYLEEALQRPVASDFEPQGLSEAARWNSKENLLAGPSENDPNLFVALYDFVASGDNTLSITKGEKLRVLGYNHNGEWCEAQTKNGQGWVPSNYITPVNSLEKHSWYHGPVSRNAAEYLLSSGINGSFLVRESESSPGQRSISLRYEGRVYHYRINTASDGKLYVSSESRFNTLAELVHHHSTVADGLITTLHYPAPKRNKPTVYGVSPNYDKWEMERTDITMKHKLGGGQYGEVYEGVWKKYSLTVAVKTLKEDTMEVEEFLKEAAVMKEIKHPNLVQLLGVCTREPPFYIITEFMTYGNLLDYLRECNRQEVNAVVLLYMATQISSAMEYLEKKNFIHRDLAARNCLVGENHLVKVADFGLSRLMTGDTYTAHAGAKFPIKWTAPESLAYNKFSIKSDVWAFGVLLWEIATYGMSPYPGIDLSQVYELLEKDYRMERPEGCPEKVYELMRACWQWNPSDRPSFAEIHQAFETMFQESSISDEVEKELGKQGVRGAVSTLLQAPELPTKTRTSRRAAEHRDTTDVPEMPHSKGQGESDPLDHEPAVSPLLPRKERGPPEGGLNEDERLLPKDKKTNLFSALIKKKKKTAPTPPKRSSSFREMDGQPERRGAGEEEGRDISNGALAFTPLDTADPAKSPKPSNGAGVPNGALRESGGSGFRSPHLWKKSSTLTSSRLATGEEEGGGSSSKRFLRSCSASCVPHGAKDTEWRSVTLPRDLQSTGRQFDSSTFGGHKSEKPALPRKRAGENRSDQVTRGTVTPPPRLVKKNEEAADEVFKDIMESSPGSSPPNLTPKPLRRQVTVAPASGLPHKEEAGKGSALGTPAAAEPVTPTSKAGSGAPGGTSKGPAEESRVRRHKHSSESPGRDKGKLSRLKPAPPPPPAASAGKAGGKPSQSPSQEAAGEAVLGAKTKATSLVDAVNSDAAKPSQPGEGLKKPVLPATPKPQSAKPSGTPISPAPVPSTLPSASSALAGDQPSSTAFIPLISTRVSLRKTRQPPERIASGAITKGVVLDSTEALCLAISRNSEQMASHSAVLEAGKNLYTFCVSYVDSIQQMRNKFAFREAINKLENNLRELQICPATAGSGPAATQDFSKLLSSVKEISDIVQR

[19] = biological target: Receptor-type tyrosine-protein kinase FLT3 (Homo sapiens) (UniProt P36888); test: Inhibition of human FLT3 using gamma-33P-ATP as substrate assessed as enzyme functional activity at 1 uM by scintillation counting relative to untreated control; set-up: scale not given: the % may be the effect or the level left
[20] = biological target: Mitogen-activated protein kinase 1 (Homo sapiens) (UniProt P28482); test: Inhibition of human MAPK1 using gamma-33P-ATP as substrate assessed as enzyme functional activity at 1 uM by scintillation counting relative to untreated control; set-up: scale not given: the % may be the effect or the level left
[21] = system: Platelet-derived growth factor receptor alpha (Homo sapiens), P16234 [V561D]; test: Inhibition of human PDGFRA V561D using gamma-33P-ATP as substrate assessed as enzyme functional activity at 1 uM by scintillation counting relative to untreated control; set-up: scale not given: the % may be the effect or the level left
Platelet-derived growth factor receptor alpha (Homo sapiens), P16234 [V561D], sequence (P16234 whole entry V561D): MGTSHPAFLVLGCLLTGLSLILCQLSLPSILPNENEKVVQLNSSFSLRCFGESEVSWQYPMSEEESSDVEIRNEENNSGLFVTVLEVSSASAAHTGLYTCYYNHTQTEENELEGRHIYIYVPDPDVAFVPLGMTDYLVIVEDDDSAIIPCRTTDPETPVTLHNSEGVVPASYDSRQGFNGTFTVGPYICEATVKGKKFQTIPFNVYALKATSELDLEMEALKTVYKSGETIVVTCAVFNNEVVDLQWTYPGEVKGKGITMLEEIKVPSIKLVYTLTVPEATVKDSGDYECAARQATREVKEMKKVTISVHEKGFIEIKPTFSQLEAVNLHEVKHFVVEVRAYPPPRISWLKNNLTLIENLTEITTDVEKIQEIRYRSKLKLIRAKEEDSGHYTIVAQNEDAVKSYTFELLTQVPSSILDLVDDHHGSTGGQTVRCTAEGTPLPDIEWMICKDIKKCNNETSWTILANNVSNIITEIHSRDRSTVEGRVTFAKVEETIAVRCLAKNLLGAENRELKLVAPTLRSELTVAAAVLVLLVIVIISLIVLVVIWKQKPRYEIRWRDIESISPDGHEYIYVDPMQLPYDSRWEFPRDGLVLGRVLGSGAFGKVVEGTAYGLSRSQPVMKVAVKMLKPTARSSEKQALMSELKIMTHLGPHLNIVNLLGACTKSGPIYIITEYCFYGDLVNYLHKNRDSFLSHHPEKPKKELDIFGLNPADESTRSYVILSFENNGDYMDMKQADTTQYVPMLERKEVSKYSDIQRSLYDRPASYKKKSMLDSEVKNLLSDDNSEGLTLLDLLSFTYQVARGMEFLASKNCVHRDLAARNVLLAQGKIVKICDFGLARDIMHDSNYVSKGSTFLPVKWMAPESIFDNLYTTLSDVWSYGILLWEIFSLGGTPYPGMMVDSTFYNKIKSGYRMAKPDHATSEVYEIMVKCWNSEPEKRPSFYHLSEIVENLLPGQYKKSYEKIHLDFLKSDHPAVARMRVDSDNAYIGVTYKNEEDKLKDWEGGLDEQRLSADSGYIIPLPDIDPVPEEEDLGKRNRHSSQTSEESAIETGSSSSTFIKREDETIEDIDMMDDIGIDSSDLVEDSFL

KM12 = test: Cytotoxicity against human KM12 cells after 48 hrs by sulforhodamine B assay; assay type: cell-based; conditions: km12, 48 h
SF-539 = test: Cytotoxicity against human SF539 cells after 48 hrs by sulforhodamine B assay; assay type: cell-based; conditions: sf-539, 48 h
SNB-19 [22] = test: Cytotoxicity against human SNB19 cells after 48 hrs by sulforhodamine B assay; assay type: cell-based; conditions: snb-19, 48 h
LOX IMVI = test: Cytotoxicity against human LOXIMVI cells after 48 hrs by sulforhodamine B assay; assay type: cell-based
Malme-3M = test: Cytotoxicity against human MALME-3M cells after 48 hrs by sulforhodamine B assay; assay type: cell-based

SMILES: O=C(c1cccc(Nc2ncnc3ccccc23)c1)N1CCN(c2ncc(Cc3ccccc3)cn2)CC1
- LC50 (SK-MEL-2 [1]): 5.89 µM
- LC50 (SK-MEL-5): 3.47 µM
- LC50 (UACC-257): 5.37 µM
- LC50 (UACC-62): 5.37 µM
- LC50 (OVCAR-5 [2]): > 100 µM
- LC50 (NCI/ADR-RES): > 100 µM
- LC50 (SK-OV-3 [3]): > 100 µM
- LC50 (CAKI-1): 4.47 µM
- LC50 (TK-10 [4]): 39.81 µM
- TGI (NCI-H460): 4.27 µM
- LC50 (DU-145): > 100 µM
- LC50 (MCF7): 5.62 µM
- LC50 (MDA-MB-231): > 100 µM
- LC50 (Hs-578T): > 100 µM
- LC50 (BT-549): 5.37 µM
- Activity [5]: > 50%
- Activity [6]: > 50%
- Activity [7]: > 50%
- Activity [8]: > 50%
- Activity [9]: 22%
- Activity [10]: > 50%
- Activity [11]: 28%
- Activity [12]: > 50%
- TGI (HCT-15): 3.55 µM
- TGI (SW-620): 4.27 µM
- TGI (SNB-19 [13]): 8.91 µM
- TGI (U-251): 6.61 µM
- TGI (SK-MEL-2 [14]): 2.69 µM
- TGI (OVCAR-5 [15]): 5.75 µM
- TGI (SK-OV-3 [16]): 4.47 µM
- TGI (786-0): 6.61 µM
- TGI (A498): 5.37 µM
- TGI (TK-10 [17]): 6.17 µM
- LC50 (MOLT-4): > 100 µM
- LC50 (A549): 8.13 µM
- LC50 (HOP-62): 7.41 µM
- Activity [18]: 87%
- Activity [19]: 95%
- Activity [20]: 73%
- Activity [21]: 100%
- LC50 (KM12): 6.61 µM
- LC50 (SF-539): > 100 µM
- LC50 (SNB-19 [22]): > 100 µM
- LC50 (LOX IMVI): 5.13 µM
- LC50 (Malme-3M): 5.25 µM

SMILES: CCc1cnc(N2CCN(C(=O)c3ccc(CNc4ncnc5ccccc45)cc3)CC2)nc1
- LC50 (SK-MEL-2 [1]): > 100 µM
- LC50 (SK-MEL-5): 20.8 µM
- LC50 (UACC-257): > 100 µM
- LC50 (UACC-62): > 100 µM
- LC50 (OVCAR-5 [2]): > 100 µM
- LC50 (NCI/ADR-RES): > 100 µM
- LC50 (SK-OV-3 [3]): > 100 µM
- LC50 (CAKI-1): > 100 µM
- LC50 (TK-10 [4]): > 100 µM
- TGI (NCI-H460): 30.7 µM
- LC50 (DU-145): > 100 µM
- LC50 (MCF7): > 100 µM
- LC50 (MDA-MB-231): > 100 µM
- LC50 (Hs-578T): > 100 µM
- LC50 (BT-549): > 100 µM
- Activity [5]: 34%
- Activity [6]: 13%
- Activity [7]: > 50%
- Activity [8]: > 50%
- Activity [9]: 23%
- Activity [10]: 24%
- Activity [11]: > 50%
- Activity [12]: > 50%
- TGI (HCT-15): > 100 µM
- TGI (SW-620): 45.1 µM
- TGI (SNB-19 [13]): > 100 µM
- TGI (U-251): > 100 µM
- TGI (SK-MEL-2 [14]): > 100 µM
- TGI (OVCAR-5 [15]): > 100 µM
- TGI (SK-OV-3 [16]): > 100 µM
- TGI (786-0): 54.8 µM
- TGI (A498): > 100 µM
- TGI (TK-10 [17]): > 100 µM
- LC50 (MOLT-4): > 100 µM
- LC50 (A549): > 100 µM
- LC50 (HOP-62): > 100 µM
- Activity [18]: 80%
- Activity [19]: 80%
- Activity [20]: 100%
- Activity [21]: 100%
- LC50 (KM12): 53.8 µM
- LC50 (SF-539): > 100 µM
- LC50 (SNB-19 [22]): > 100 µM
- LC50 (LOX IMVI): 97.3 µM
- LC50 (Malme-3M): > 100 µM

SMILES: c1ccc(Cc2cnc(N3CCN(c4ncnc5ccccc45)CC3)nc2)cc1
- LC50 (SK-MEL-2 [1]): 70.3 µM
- LC50 (SK-MEL-5): 37.7 µM
- LC50 (UACC-257): 41.4 µM
- LC50 (UACC-62): 63.1 µM
- LC50 (OVCAR-5 [2]): > 100 µM
- LC50 (NCI/ADR-RES): 66.4 µM
- LC50 (SK-OV-3 [3]): > 100 µM
- LC50 (CAKI-1): > 100 µM
- LC50 (TK-10 [4]): > 100 µM
- TGI (NCI-H460): 23.7 µM
- LC50 (DU-145): 79.8 µM
- LC50 (MCF7): > 100 µM
- LC50 (MDA-MB-231): 92.8 µM
- LC50 (Hs-578T): > 100 µM
- LC50 (BT-549): 43 µM
- Activity [5]: > 50%
- Activity [6]: > 50%
- Activity [7]: 3.4%
- Activity [8]: 31%
- Activity [9]: 26%
- Activity [10]: > 50%
- Activity [11]: 47%
- Activity [12]: 8.4%
- TGI (HCT-15): 63.2 µM
- TGI (SW-620): 27.7 µM
- TGI (SNB-19 [13]): > 100 µM
- TGI (U-251): 24.6 µM
- TGI (SK-MEL-2 [14]): 35.8 µM
- TGI (OVCAR-5 [15]): 69.8 µM
- TGI (SK-OV-3 [16]): > 100 µM
- TGI (786-0): 36.7 µM
- TGI (A498): 24.2 µM
- TGI (TK-10 [17]): 60.8 µM
- LC50 (MOLT-4): > 100 µM
- LC50 (A549): > 100 µM
- LC50 (HOP-62): > 100 µM
- Activity [18]: 92%
- Activity [19]: 74%
- Activity [20]: 100%
- Activity [21]: 20%
- LC50 (KM12): 50.1 µM
- LC50 (SF-539): 56.1 µM
- LC50 (SNB-19 [22]): > 100 µM
- LC50 (LOX IMVI): 44.3 µM
- LC50 (Malme-3M): 89.2 µM
